Measured values reported in paper PMC5805526, “ZB716, a steroidal selective estrogen receptor degrader (SERD), is orally efficacious in blocking tumor growth in mouse xenograft models” (Oncotarget, 2018).
Several values for one entry are separate records, joined by “and”; a condition that tells them apart may be missing. Identical values can stand only once. Like-named read-outs stand apart in the source and are kept apart here.

How the values were obtained:
[1] = tested on: MCF-7 breast cancer cells; experiment: MCF-7 cell growth inhibition; format: cell-based; conditions: Homo sapiens, MCF7, 120 h; 5 days treatment, cell count vs DMSO
Protocol: At the end of treatment, surviving cells were counted and normalized to control cells that were treated with vehicle (DMSO) only. (B) IC50 values were obtained by deriving logarithmic curves from the %cell survival vs. treatment dose plot.

[2] = biological target: T1, ERα (Homo sapiens, UniProt P03372); experiment: ER downregulation in MCF-7 cells (Western blot); format: cell-based; conditions: treated for 4 hours, read-out: ERα IC50 (ER downregulation in MCF-7 cells)
T1 construct: MCF-7 cells were plated at a density of 200,000 cells/60mm dish; endogenous in cells; host or cells: MCF-7
T1 sequence (P03372 1-595): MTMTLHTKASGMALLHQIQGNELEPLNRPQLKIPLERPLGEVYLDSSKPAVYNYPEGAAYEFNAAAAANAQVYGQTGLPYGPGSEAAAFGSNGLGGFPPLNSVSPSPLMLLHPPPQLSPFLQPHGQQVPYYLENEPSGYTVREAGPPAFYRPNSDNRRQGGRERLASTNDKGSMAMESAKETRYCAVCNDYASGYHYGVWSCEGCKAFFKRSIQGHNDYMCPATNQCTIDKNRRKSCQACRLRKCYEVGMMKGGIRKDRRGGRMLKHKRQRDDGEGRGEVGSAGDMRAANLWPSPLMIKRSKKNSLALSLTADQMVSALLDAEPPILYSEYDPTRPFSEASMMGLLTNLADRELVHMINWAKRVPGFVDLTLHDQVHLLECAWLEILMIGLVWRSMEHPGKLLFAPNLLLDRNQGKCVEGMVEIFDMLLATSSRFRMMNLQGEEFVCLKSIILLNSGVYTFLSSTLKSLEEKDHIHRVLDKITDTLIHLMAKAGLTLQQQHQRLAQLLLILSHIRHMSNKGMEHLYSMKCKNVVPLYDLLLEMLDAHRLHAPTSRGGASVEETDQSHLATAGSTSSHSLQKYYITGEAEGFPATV
Protocol: MCF-7 cells were plated at a density of 200,000 cells/60mm dish. Media containing the same drug concentrations as the growth curve assay were added on the day following plating (day 0) and allowed to incubate for 5 days for Western blot. Media with the tested compound was changed every other day. Cells were lysed. Lysates were placed on a rotisserie at 4°C for 30 min and then spun at 4°C at 12,000 rcf for 10 min. Supernatants were assayed for protein content, snap-frozen, and stored at −80°C if not run immediately. 50 μg of protein was subjected to Western blot protocol. Membranes were blocked and then incubated with 1:200 dilution of ERα antibody at 4°C overnight followed by 1:10,000 dilution of secondary antibody for 1 hr at room temperature. They were then imaged on a LICOR infrared scanner.

[3] = tested on: T47D/Y537S breast cancer cells; experiment: T47D/Y537S ESR1 mutant cell growth inhibition; format: cell-based; conditions: Homo sapiens, 120 h, 5 days treatment
Text: Wild-type ESR1, the Y537S ESR1 mutant were fused to a FLAG tag at their C-termini and cloned into the lentiviral vector pFLRu-FH [30]. Y537S mutation was first introduced into ESR1 using the QuikChange II XL Site-Directed Mutagenesis Kit (Agilent) with an ESR1-encoding plasmid (Accession number NM_000125.1, GeneCopoeia Inc.) as the template. […] To make lentiviral particles, pFLRu-FH vector DNAs (encoding ESR1(wt) and ESR1(Y537S)) were cotransfected with the packaging plasmids into HEK293T cells using Fugene 6 (Roche). At 48 hours post transfection, culture media containing different viruses were added to T47D cells in the presence of polybrene followed by 3-day puromycin selection for stable expression.
Viable cell numbers were counted with a Z Series Coulter Counter instrument (Beckman-Coulter) following manufacturer's instructions. […] IC50 values were obtained from dose-response curves for all treatments.

[4] = tested on: MCF-7 human breast cancer xenograft; experiment: Efficacy in MCF-7 xenograft tumor model; format: in vivo, Nu/Nu mice; conditions: ZB716 at both 10 mg/kg and 30 mg/kg by oral gavage, three weeks
Protocol: Four to six weeks old female ovariectomized Nu/Nu mice were purchased from Charles River Laboratories (Wilmington, MA). MCF-7 cells were cultured and harvested in the exponential growth phase using a PBS/EDTA solution. The animals were injected bilaterally in the mammary fat pad (MFP) with 5×10^6 viable cells suspended in 50 μL sterile PBS mixed with 100 μL Matrigel (reduced factor; BD Biosciences, Bed- ford, MA). 17b-Estradiol pellets (0.72 mg, 60 day release; Innovative Research of America, Sarasota, FL) were implanted subcutaneously in the lateral area of the neck using a precision trochar (10 gages) at the time of cell injection. Tumors were allowed to form and at day 15 post cell injection mice. […] Tumor sizes were monitored and recorded every other day for three weeks of treatment duration.

[5] = Drug concentrations in final plasma and tumor tissue of MCF-7 xenograft mice; format: in vivo; conditions: for concentration at 3 weeks: female, Nu/Nu, mouse, end of study
Protocol: (§1) The plasma samples of 100 μL each were processed for analysis by a TSQ UPLC-MS/MS system. Aliquots of 10 μL of 0.5 ng/μl E-Tamoxifen-2C^13, N^15, 200 μL methanol, and 400 μl chloroform were added to the plasma in a 1.5 mL centrifuge tube in sequence. The sample was vortexed and stored at −20°C for 4 hours, followed by sonication in a Branson B3510MT Ultrasonic Cleaners for 30 min and centrifuged at 12000 RPM on a Heraeus Fresco 21 Refrigerated Micro Centrifuge from Thermo Fisher Scientific for 10 min. The supernatant was dried with a nitrogen gas flow and suspended in 100 μL methanol. Aliquots of 10 μL of the above processed samples were injected into a TSQ Vantage mass spectrometer connected with a heated electrospray ionization probe and a Dionex Ultimat 3000 UHPLC with a Hypersil gold column (50×2.1 mm). The probe setting and front mass spectrometer setting were controlled as follows: spray voltage 3200 voltage, auxiliary gas 10psi, vaporizer temperature 365°C, capillary temperature 300°C, sheath gas 30psi, S-lens RF amplitude 51 voltage. The flow gradient was started with initial 30% mobile phase A of water with 0.05% formic acid to 1 min, to 100% mobile phase B of acetonitrile with 0.05% formic acid at 8 min, and return to 30% mobile phase A at 13 min.

[6] = Pharmacokinetic study in rats, single oral dose; format: in vivo, Sprague-Dawley rats; conditions: rat; for concentration at 1 h / concentration at 3 h / concentration at 6 h / concentration at 8 h / concentration at 24 h: oral, read-out: Rat plasma concentration of ZB716 after a single oral dose
Protocol: Female Sprague-Dawley rats, weighing between 350 and 400 g (Charles River Laboratories, Portage, MI) were used for the pharmacokinetic study on ZB716. Rats were given oral gavage containing 5% dimethyl sulfoxide (DMSO), 40% polyethylene glycol 400, 55% saline-dissolved ZB716, at doses ranging from 1 mg/kg to 20 mg/kg. After drug administration, blood samples were collected from the lateral tail vein of the rat at 1, 3, 6, 8, 24 h. Rat blood was collected with a capillary into 1.5 mL microcentrifuge tubes containing 0.01 mL of 10 % EDTA anticoagulant. Plasma was then separated from cell pellets by centrifugation in a refrigerated centrifuge at 4°C and transferred to a separate tube. Plasma samples were frozen at −80°C until analysis.
as §1

[7] = tested on: ERα; parameters: method as in PMID 27529700; conditions: read-out: binding affinity to ERα, EC50; cited from earlier work
[8] = parameters: method as in PMID 27529700; conditions: mice; cited from earlier work
[9] = female, Sprague-Dawley, plasma, 1 mg/kg
[10] = female, Sprague-Dawley, plasma, 5 mg/kg
[11] = female, Sprague-Dawley, plasma, 10 mg/kg
[12] = female, Sprague-Dawley, plasma, 20 mg/kg

For `C[C@]12CC[C@@H]3c4ccc(B(O)O)cc4C[C@@H](CCCCCCCCC[S+]([O-])CCCC(F)(F)C(F)(F)F)[C@H]3[C@@H]1CC[C@@H]2O` (stereo partly drawn) [ZB716], the IC50 [1] was 3.2 nM, the DC50 [2] was 0.8 nM and the IC50 [3] was 24.4 nM. For the same compound, the “tumor growth in MCF-7 xenograft” value [4] was “complete blockage of tumor growth”, the “drug accumulation in tumor tissue relative to fulvestrant treated mice” value ([5]; ZB716 10 mg/kg dose group) was 4 fold and the “final plasma concentration relative to fulvestrant treatment group” value ([5]; ZB716 10 mg/kg dose group) was “over 6 fold”. The “drug concentration in tumor tissue relative to fulvestrant treated mice” value ([5]; ZB716 30 mg/kg dose group) was 10 fold, the “final plasma concentration relative to fulvestrant treatment group” value ([5]; ZB716 30 mg/kg dose group) was greater than 20 fold and the concentration at 3 weeks ([5]; plasma, treatment ZB716 10 mg/kg daily PO, read-out: Average concentration in final plasma) was 182 ng/mL. The concentration at 3 weeks ([5]; plasma, treatment ZB716 30 mg/kg daily PO, read-out: Average concentration in final plasma) was 692 ng/mL, the concentration at 3 weeks ([5]; tumor tissue, treatment ZB716 10 mg/kg daily PO, read-out: Average concentration in tumor tissue) was 506 ng/mL and the concentration at 3 weeks ([5]; tumor tissue, treatment ZB716 30 mg/kg daily PO, read-out: Average concentration in tumor tissue) was 1540 ng/mL. It also gave a concentration at 1 h [6, 9] of 14.8 ± 6.51 ng/mL, a concentration at 3 h [6, 9] of 9.23 ± 2.33 ng/mL and a concentration at 6 h [6, 9] of 4.7 ± 1.66 ng/mL. It also gave a concentration at 8 h [6, 9] of 4.42 ± 2.38 ng/mL, a concentration at 24 h [6, 9] of 1.36 ± 1.42 ng/mL and a concentration at 1 h [6, 10] of 46.5 ± 4.81 ng/mL. It also gave a concentration at 3 h [6, 10] of 23.4 ± 2.8 ng/mL, a concentration at 6 h [6, 10] of 15.9 ± 2.03 ng/mL and a concentration at 8 h [6, 10] of 11.4 ± 0.52 ng/mL. It also gave a concentration at 24 h [6, 10] of 9.37 ± 1.24 ng/mL, a concentration at 1 h [6, 11] of 218 ± 27.8 ng/mL and a concentration at 3 h [6, 11] of 93.6 ± 21.8 ng/mL. It also gave a concentration at 6 h [6, 11] of 62 ± 14.9 ng/mL, a concentration at 8 h [6, 11] of 60.7 ± 13.9 ng/mL and a concentration at 24 h [6, 11] of 33.1 ± 10.6 ng/mL. It also gave a concentration at 1 h [6, 12] of 1040 ± 153 ng/mL, a concentration at 3 h [6, 12] of 671 ± 125 ng/mL and a concentration at 6 h [6, 12] of 371 ± 111 ng/mL. For the same compound, the concentration at 8 h [6, 12] was 300 ± 118 ng/mL, the concentration at 24 h [6, 12] was 98.5 ± 36.1 ng/mL and the Tmax ([6]; female, Sprague-Dawley, plasma, all four oral doses (1, 5, 10, 20 mg/kg), read-out: time of peak concentration in rat plasma) was 1 h. The peak plasma concentration ([6]; 20 mg/kg oral, 20 mg/kg) was “over 1000 ng/mL and > 1.6 μM”, the EC50 [7] was 4.1 nM and the “plasma peak concentration after single-dose oral gavage relative to same-dose fulvestrant s.c.” value [8] was “over 10 times”.
